Measurements reported in patent US8198266B2, “Use of an EGFR antagonist for the treatment of glomerolonephritis” (INSERM (Institut National de la Sante et de la Recherche …, priority 2006, dated 2012).
Entries after “also recorded” stand apart in the source; their conditions may differ.

Assays:
[1] = tested on: anti-GBM nephrotoxic serum-induced crescentic glomerulonephritis (RPGN) in mice; assay: Histopathology and immunohistochemistry (crescentic glomeruli, CD3 positive cells) in accelerated anti-GBM crescentic glomerulonephritis; assay type: in vivo, mouse
[2] = tested on: anti-GBM nephrotoxic serum-induced crescentic glomerulonephritis (RPGN) in mice; assay: Assessment of ascitis, renal function and albuminuria in accelerated anti-GBM crescentic glomerulonephritis; assay type: in vivo, mouse
Method: Assessment of […], renal function and albuminuria: […] Stage 2 to 4 were associated with clinically evident […] weight gain before sacrifice. Serum and urinary creatinine, and blood urea nitrogen (BUN) were quantified spectrophotometrically using a colorimetric method. Urinary albumin excretion was measured using a specific ELISA assay for quantitative determination of albumin inmouse urine (CellTrend GmbH).

[3] = tested on: anti-GBM nephrotoxic serum-induced crescentic glomerulonephritis (RPGN) in mice; assay: Survival in accelerated anti-GBM crescentic glomerulonephritis; conditions: AG1478-treated HB-EGF(+/+) mice
Method: Briefly, WT and HB-EGF−/− mice received subcutaneous injection with 200 μg normal sheep IgG (100 μl in each flank of normal sheep IgG (Sigma) diluted to 1 mg/ml in a solution of 50% freund complete adjuvent and 50% saline). Six days later (day 1), glomerulonephritis (GN) was induced by intravenous injection of 50 μl sheep anti-glomerular basement membrane (GBM) serum diluted to 7 mg/ml in saline. Serum injection was repeated twice (days 2 and 3), with serum dilution increased to 70 mg/ml. On days 0, 1, 2, 3, 5 and 7, mice received intraperitoneal injection of either AG1478 (LC Laboratories), a pharmacological inhibitor of EGFR tyrosine kinase activity (30 mg.kg-1.day-1 in 100 μl of a saline solution with 1% carboxymethylcellulose (CMC) and 10% DMSO), or 100 μl of saline solution with 1% CMC and 10% DMSO as control. On day 8, mice were sacrified after body weight measurement and 12 hours urines collection with metabolic cages. […] On day 14, mice were sacrified. Blood was obtained from mice by aortic catheterization. Kidneys from each mouse were processed for immunohistochemistry, protein and mRNA analysis, and the remaining half-kidney fixed in 10% neutral-buffered formalin for histological study.

[4] = target: T1, EGFR (Mus musculus, UniProt Q01279); assay: Phosphorylation of EGFR in renal cortex/glomeruli (western blot, immunofluorescence) during experimental RPGN; assay type: in vivo
T1 construct: Proteins were extracted from kidneys using a lysis buffer; from tissue; host or cells: mouse kidney (renal cortex, glomeruli); wild type and HB-EGF-/- mice on mixed C57BL/6J x 129 background
Method: On day 14, mice were sacrified.
For immunofluorescence in mouse tissues, cryostat sections of 4 μm were immediately fixed in acetone, washed in PBS and then incubated with antibodies in a humid incubator. Deposits of mouse IgG in kidney were evaluated using FITC rat anti-mouse IgG (FI2000, Vector) (1:100 dilution, incubation for 1 hour at room temperature).
Western blot analysis: Proteins were extracted from kidneys using a lysis buffer (Phosphosafe extraction buffer, Novagen) and quantified according to Bradford's method. […] Immunoblotting was performed using the rabbit anti phospho-EGFR (Cell Signaling) diluted 1:1,000 or a rabbit anti-EGFR diluted 1:5,000 (Cell Signaling) as control for lane loading. Then, horseradish peroxidase-linked donkey secondary antibody (Amersham Pharmacia Biotech) diluted 1:2,000 was added and revelation was subsequently made using ECL plus kit (Amersham Pharmacia Biotech) on autoradiography film, followed by densitometric analysis.

[5] = day 14, erlotinib preventive (d0-14) or curative (d4-14) protocol
[6] = day 8, AG1478 30 mg/kg i.p., wild type mice, 30 mg/kg

T1 sequence (Q01279 25-1210): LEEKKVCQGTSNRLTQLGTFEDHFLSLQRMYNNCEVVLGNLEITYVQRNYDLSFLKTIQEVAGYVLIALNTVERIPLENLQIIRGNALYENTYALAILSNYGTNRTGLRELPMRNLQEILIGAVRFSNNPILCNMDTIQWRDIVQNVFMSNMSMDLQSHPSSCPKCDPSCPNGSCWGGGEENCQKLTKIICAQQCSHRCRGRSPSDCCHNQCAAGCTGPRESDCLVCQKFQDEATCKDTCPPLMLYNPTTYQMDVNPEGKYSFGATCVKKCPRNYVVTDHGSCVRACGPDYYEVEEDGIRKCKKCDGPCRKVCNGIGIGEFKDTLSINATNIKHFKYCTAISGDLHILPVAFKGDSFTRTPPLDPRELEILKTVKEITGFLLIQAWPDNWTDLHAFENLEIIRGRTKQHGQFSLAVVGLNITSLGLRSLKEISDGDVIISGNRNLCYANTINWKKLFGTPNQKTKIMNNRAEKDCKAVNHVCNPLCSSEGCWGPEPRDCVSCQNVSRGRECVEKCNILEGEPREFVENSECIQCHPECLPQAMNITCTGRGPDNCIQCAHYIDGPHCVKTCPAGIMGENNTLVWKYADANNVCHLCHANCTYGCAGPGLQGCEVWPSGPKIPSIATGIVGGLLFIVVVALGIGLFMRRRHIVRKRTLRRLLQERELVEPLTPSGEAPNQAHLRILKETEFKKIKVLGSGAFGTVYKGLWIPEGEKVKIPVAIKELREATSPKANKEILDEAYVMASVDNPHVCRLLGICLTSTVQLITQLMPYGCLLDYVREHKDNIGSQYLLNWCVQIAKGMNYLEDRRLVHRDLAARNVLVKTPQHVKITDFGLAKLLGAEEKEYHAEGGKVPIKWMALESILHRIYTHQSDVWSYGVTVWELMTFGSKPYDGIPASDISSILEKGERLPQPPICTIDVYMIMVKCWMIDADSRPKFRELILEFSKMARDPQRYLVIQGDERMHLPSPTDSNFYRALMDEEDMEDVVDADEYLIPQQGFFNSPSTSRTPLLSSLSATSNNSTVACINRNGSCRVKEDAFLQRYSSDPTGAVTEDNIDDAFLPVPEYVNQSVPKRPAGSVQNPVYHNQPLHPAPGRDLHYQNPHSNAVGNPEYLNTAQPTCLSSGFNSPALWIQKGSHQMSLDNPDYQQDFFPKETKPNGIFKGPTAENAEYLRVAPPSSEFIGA

| Structure (SMILES) | necrotic glomerular lesions, cellular crescents, tubular proteinaceous casts and diffuse CD3 positive cells infiltrates ([1]; day 14, delayed erlotinib from day 4 to day 14, Masson trichrome staining) | proportion of crescentic glomeruli ([1]; day 14, erlotinib 100 mg/kg/day per gavage, preventive (12 hours prior to anti-GBM serum), n=9) | development of glomerular injury (in words) [1, 5] | blood urea nitrogen ([2]; day 14, erlotinib 100 mg/kg/day per gavage, preventive, n=9) | renal failure / blood urea nitrogen levels (in words) [2, 5] | crescent formation / renal lesions (in words) [1, 6] | periglomerular and interstitial CD3+ cell infiltrates [1, 6] | % of crescentic glomeruli ([1]; day 8 after induction of RPGN, AG1478 30 mg/kg/day i.p., n=6) | death within 8 days of RPGN [3] | phosphorylation of EGFR (in words) ([4]; AG1478 i.p. in wild type mice vs vehicle only, day 8) | pEGFR signal in glomeruli (immunofluorescence) ([4]; day 8 post NTS, AG1478 30 mg/kg/day i.p.) | phosphorylation of EGFR blunted (fold) ([4]; renal cortex, day 8 post NTS, AG1478 30 mg/kg/day i.p. vs vehicle) | pEFGR/EGFR ratio ([4]; renal cortex, western blot, day 8 post NTS, AG1478 30 mg/kg/day i.p., wild type mice, n=6) | incidence and severity of asciitis ([2]; day 8, AG1478 30 mg/kg i.p., vs vehicle) | albumin urinary leakage, renal function / renal failure (in words) ([2]; day 8, AG1478 30 mg/kg i.p., 30 mg/kg) | albuminuria ([2]; day 8, AG1478 30 mg/kg/day i.p., n=6) | BUN ([2]; day 8, AG1478 30 mg/kg/day i.p., n=6, in mM) |
| --- | --- | --- | --- | --- | --- | --- | --- | --- | --- | --- | --- | --- | --- | --- | --- | --- | --- |
| C#Cc1cccc(Nc2ncnc3cc(OCCOC)c(OCCOC)cc23)c1.Cl [erlotinib, [6,7-bis(2-methoxyethoxy)-4-quinazolin-4-yl]-(3-ethynylphenyl)amine] | blunted | 25.0±6.9 ° A) | blunted or stopped the development of glomerular injury | 3.8 ± 0.4 mmol/L | prevented renal failure with normal blood urea nitrogen levels |  |  |  |  |  |  |  |  |  |  |  |  |
| COc1cc2ncnc(Nc3cccc(Cl)c3)c2cc1OC [AG1478, 4-(3-Chloroanilino)-6,7-dimethoxyquinazoline] |  |  |  |  |  | reduces crescent formation; also recorded: dramatically reduced the development of renal lesions | reduces crescent formation and T cells infiltrates; also recorded: absent; also recorded: more effective in preventing cell infiltrate than HB-EGF deficiency | 6.8±1.7% | no AG1478-treated HB-EGF(+/+) mice died | prevented the phosphorylation of EGFR | faint or no signal was detectable | ~9 fold | 11 % of vehicle only-treated mice | lower incidence and severity of asciitis | prevents albumin urinary leakage and renal failure; also recorded: renal function was preserved | 8.9±2.3 g/mmol creatinine | 6.39±2.0 |
